Measurements reported in patent US11542240B2, “STK19 inhibitors for treatment of cancer” (TRUSTEES OF BOSTON UNIVERSITY, priority 2018, dated 2023).
Read-outs that look alike come from different tables or passages of the source.

Experiments:
[1] = test system: hTERT/p53DD/CDK4(R24C) melanocytes xenograft; test: xenograft tumor formation of engineered melanocytes in nude mice; format: in vivo, mouse
Experimental: FIGS. 6B-6D. Growth curve, tumor weight, and dissected tumors for the xenograft experiments with indicated cells inoculated subcutaneously into flanks of nude mice treated with IV. Visible tumors were measured every three days. […] (FIGS. 6E-6G) Growth curve, tumor weight, and dissected tumors for the xenograft experiments with SK-MEL-2 cells inoculated subcutaneously into flanks of nude mice treated with IV. Visible tumors were measured every three days. […] (FIGS. 6H-6I) Effects of IV treatment on in vivo proliferation and apoptosis were evaluated by staining of the sections of tumor collected in G for Ki67 and cleaved caspase-3. The sections were counterstained with DAPI. Data are means±SD (n=7). Representative images were shown. Scale bar, 100 μm.
The inventors also performed immunofluorescence on SK-MEL-2 xenograft tumors to investigate the effects of IV on in vivo proliferation and apoptosis, represented by Ki67 and cleaved caspase-3 staining.

[2] = tolerability study in C57BL/6J mice (body weight, blood chemistry, H&E histology)
Experimental: Data are means±SD (n=3). […] ATP Km (app) was calculated by fitting the data with Michaelis-Menten equation. Data are means±SD (n=3). […] Data are means±SD relative to control group (n=3). […] Data are means±SD relative to control group (n=3). […] Data are means±SD relative to control groups (n=3). Body weight measurements of C57BL/6J mice treated with 0 or 25 mg/kg IV (BID) for 15 days. Data are means±SEM relative to control groups (n=8). H&E staining of tissues in C57BL/6J mice treated with 0 or 25 mg/kg IV (BID) for 15 days. Scale bar, 250 m.

[3] = target: panel of 468 diverse kinases (Homo sapiens, UniProt O15075); test: biochemical; format: binding; conditions: DCAMKL1; 1000 nM; read-out: Percent Control
[4] = target: panel of 468 diverse kinases (Homo sapiens, UniProt P00519, H396P); test: biochemical; format: binding; conditions: 1000 nM, read-out: Percent Control
[5] = target: panel of 468 diverse kinases (Homo sapiens, UniProt Q16512); test: biochemical; format: binding; conditions: PKN1; 1000 nM; read-out: Percent Control
Chain of panel of 468 diverse kinases (Homo sapiens, UniProt Q16512) (Q16512 2-942 limits assumed): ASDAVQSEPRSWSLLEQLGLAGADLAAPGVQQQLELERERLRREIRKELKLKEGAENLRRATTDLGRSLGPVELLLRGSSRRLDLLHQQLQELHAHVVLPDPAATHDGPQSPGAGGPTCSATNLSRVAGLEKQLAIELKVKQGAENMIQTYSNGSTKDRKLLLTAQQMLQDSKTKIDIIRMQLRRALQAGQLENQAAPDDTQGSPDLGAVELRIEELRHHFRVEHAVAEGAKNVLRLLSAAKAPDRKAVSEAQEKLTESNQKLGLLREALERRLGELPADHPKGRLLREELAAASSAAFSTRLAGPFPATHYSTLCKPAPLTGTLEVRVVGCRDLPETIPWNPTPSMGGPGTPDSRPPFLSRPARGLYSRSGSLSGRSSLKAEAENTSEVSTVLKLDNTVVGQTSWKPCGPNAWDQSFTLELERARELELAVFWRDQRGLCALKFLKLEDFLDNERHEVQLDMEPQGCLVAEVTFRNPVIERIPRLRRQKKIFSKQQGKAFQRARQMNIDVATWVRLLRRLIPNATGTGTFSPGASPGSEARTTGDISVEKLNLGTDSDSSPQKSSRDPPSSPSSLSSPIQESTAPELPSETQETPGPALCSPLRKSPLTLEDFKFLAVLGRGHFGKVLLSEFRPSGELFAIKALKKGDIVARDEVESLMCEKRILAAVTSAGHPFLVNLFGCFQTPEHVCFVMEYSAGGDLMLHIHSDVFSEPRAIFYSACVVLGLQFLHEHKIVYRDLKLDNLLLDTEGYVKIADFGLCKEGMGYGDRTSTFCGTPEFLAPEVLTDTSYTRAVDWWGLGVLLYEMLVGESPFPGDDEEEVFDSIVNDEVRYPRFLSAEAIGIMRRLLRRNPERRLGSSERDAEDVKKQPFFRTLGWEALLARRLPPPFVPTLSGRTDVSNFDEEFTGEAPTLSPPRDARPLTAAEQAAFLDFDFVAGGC

[6] = target: panel of 468 diverse kinases (Homo sapiens, UniProt P36888, R834Q); test: biochemical; format: binding; conditions: FLT3(R834Q); 1000 nM; read-out: Percent Control
[7] = target: panel of 468 diverse kinases (Homo sapiens, UniProt Q12852); test: biochemical; format: binding; conditions: DLK; 1000 nM; read-out: Percent Control
[8] = target: panel of 468 diverse kinases (Homo sapiens, UniProt O00141); test: biochemical; format: binding; conditions: SGK; 1000 nM; read-out: Percent Control
[9] = target: panel of 468 diverse kinases (Homo sapiens, UniProt P49759); test: biochemical; format: binding; conditions: CLK1; 1000 nM; read-out: Percent Control
[10] = target: panel of 468 diverse kinases (Homo sapiens, UniProt P36888, K663Q); test: biochemical; format: binding; conditions: FLT3(K663Q); 1000 nM; read-out: Percent Control
[11] = target: panel of 468 diverse kinases (Homo sapiens, UniProt Q9Y463); test: biochemical; format: binding; conditions: DYRK1B; 1000 nM; read-out: Percent Control
[12] = target: panel of 468 diverse kinases (Homo sapiens, UniProt P31751); test: biochemical; format: binding; conditions: AKT2; 1000 nM; read-out: Percent Control
[13] = target: panel of 468 diverse kinases (Homo sapiens, UniProt O95819); test: biochemical; format: binding; conditions: MAP4K4; 1000 nM; read-out: Percent Control
Chain of panel of 468 diverse kinases (Homo sapiens, UniProt O95819) (O95819 2-1239 limits assumed): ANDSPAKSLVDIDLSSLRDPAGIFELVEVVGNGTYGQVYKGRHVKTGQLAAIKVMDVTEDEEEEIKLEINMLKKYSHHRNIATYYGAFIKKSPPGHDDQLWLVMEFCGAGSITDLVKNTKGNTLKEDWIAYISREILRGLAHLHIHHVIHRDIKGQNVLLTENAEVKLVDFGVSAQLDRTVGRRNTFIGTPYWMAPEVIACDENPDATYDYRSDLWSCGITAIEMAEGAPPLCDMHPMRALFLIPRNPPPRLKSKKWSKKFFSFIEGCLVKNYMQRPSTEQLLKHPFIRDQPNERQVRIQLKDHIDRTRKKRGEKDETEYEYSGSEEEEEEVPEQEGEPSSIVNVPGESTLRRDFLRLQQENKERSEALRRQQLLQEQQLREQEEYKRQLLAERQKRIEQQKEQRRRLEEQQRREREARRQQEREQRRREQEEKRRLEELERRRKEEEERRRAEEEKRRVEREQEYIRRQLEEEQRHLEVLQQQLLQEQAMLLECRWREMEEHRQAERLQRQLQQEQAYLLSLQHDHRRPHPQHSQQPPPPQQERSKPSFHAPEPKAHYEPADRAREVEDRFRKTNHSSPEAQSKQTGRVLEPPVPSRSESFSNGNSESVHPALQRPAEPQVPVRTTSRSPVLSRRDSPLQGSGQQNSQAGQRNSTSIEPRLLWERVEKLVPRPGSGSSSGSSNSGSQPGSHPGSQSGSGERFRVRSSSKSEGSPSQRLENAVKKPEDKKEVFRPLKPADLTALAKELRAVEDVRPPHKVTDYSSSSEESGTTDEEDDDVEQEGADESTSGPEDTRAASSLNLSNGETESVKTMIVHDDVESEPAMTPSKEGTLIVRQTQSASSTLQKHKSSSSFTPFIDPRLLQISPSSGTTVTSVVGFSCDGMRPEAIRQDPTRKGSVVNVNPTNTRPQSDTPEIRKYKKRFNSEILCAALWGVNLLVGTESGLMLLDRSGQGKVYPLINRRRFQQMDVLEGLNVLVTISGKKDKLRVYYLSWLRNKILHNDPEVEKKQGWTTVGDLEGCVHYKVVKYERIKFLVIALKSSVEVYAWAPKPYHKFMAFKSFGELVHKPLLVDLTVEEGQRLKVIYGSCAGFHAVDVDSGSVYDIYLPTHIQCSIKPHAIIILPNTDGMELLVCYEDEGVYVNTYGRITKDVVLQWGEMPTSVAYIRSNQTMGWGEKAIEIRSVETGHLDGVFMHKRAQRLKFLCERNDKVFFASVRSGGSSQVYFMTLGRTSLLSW

[14] = target: panel of 468 diverse kinases (Homo sapiens, UniProt P54762); test: biochemical; format: binding; conditions: EPHB1; 1000 nM; read-out: Percent Control
[15] = target: panel of 468 diverse kinases (Homo sapiens, UniProt P10721, V559D); test: biochemical; format: binding; conditions: KIT(V559D); 1000 nM; read-out: Percent Control
Chain of panel of 468 diverse kinases (Homo sapiens, UniProt P10721, V559D) (P10721 26-976 V559D limits assumed): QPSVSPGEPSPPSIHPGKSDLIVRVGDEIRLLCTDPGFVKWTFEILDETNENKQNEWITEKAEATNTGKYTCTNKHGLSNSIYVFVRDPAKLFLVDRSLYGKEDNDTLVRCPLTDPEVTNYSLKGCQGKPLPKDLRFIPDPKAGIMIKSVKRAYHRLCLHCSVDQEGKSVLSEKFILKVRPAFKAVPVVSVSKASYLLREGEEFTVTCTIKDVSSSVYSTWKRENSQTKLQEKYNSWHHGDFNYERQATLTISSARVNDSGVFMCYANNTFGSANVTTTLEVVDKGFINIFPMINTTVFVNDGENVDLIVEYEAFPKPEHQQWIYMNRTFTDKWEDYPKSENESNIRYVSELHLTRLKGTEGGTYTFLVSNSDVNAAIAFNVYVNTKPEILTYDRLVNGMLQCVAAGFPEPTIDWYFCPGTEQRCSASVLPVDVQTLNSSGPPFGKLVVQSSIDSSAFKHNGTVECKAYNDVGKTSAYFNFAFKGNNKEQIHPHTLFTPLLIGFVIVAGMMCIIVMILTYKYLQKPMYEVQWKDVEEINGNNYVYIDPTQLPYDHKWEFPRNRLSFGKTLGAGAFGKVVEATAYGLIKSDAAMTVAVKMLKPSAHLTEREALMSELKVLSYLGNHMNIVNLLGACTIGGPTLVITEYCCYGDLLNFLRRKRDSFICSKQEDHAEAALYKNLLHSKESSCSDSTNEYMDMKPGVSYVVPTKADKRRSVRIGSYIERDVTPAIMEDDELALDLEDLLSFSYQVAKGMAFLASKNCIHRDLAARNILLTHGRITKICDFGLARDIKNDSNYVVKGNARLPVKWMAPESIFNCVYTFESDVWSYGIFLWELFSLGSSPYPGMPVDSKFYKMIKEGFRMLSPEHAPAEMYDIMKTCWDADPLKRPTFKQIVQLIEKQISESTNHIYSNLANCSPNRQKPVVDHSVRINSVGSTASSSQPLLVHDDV

[16] = target: panel of 468 diverse kinases (Homo sapiens, UniProt P43405); test: biochemical; format: binding; conditions: SYK; 1000 nM; read-out: Percent Control
[17] = target: panel of 468 diverse kinases (Homo sapiens, UniProt P22455); test: biochemical; format: binding; conditions: FGFR4; 1000 nM; read-out: Percent Control
Chain of panel of 468 diverse kinases (Homo sapiens, UniProt P22455) (P22455 22-802 limits assumed): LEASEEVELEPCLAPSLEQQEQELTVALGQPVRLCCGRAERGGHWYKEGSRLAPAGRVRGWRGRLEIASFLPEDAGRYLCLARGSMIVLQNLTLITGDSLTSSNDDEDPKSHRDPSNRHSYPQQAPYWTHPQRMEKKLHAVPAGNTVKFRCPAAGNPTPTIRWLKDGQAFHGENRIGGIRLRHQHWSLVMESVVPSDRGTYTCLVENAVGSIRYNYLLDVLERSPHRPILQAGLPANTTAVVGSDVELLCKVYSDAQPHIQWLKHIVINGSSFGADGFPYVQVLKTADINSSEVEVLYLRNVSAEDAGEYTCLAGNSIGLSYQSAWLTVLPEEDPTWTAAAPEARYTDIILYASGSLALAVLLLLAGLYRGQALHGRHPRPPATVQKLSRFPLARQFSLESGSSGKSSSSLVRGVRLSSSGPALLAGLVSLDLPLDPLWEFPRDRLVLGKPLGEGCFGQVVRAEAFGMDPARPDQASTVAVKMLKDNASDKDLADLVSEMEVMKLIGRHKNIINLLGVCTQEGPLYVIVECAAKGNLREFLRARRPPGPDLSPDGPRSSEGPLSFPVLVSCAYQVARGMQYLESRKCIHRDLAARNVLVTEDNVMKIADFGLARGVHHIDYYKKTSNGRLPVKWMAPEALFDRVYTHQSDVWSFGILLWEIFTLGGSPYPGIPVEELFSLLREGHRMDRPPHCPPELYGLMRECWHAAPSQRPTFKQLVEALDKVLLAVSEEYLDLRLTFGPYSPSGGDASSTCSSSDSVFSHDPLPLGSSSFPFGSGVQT

[18] = target: panel of 468 diverse kinases (Homo sapiens, UniProt P53671); test: biochemical; format: binding; conditions: LIMK2; 1000 nM; read-out: Percent Control
[19] = target: panel of 468 diverse kinases (Homo sapiens, UniProt P29322); test: biochemical; format: binding; conditions: EPHA8; 1000 nM; read-out: Percent Control
[20] = target: panel of 468 diverse kinases (Homo sapiens, UniProt P49760); test: biochemical; format: binding; conditions: CLK2; 1000 nM; read-out: Percent Control
[21] = target: panel of 468 diverse kinases (Homo sapiens, UniProt Q9NSY1); test: biochemical; format: binding; conditions: BIKE; 1000 nM; read-out: Percent Control
[22] = target: panel of 468 diverse kinases (Homo sapiens, UniProt Q6P2M8); test: biochemical; format: binding; conditions: CAMK1B; 1000 nM; read-out: Percent Control
[23] = target: panel of 468 diverse kinases (Homo sapiens, UniProt Q9P0L2); test: biochemical; format: binding; conditions: MARK1; 1000 nM; read-out: Percent Control
STK19 = STK19 (Homo sapiens (Human), UniProt P49842); test: thermal denaturation curve shift of STK19; conditions: read-out: shift in the melting temperature of STK19
Chain of STK19 (P49842 other isoform, or with tags, fused parts or gaps): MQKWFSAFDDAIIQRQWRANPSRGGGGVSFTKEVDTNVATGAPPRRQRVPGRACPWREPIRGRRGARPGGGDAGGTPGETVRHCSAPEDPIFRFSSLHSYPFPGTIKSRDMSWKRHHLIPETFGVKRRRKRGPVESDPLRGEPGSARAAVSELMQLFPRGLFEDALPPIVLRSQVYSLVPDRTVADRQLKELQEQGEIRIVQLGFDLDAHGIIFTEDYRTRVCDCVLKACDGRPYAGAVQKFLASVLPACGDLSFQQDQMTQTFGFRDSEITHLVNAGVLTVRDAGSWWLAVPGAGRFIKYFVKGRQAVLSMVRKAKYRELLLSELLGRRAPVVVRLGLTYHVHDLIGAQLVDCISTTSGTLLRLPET

STK19 V134Y = STK19 V134Y (Homo sapiens (Human), UniProt P49842, V134Y); test: STK19 kinase assay, V134Y mutant; conditions: V134Y mutation
Chain of STK19 V134Y (P49842 other isoform, or with tags, fused parts or gaps V134Y): as the sequence (P49842 other isoform, or with tags, fused parts or gaps) above, with V134Y counted along it

[24] = blood chemistry in tolerability studies

## COc1cc2nc(NC3CC3)nc(NC3CCN(C(C)C)CC3)c2cc1OC [Formula IV]
[1]
  mutant NRAS/STK19-driven melanocyte tumor formation: significantly inhibited
[2]; C57BL/6J mice
  serum transaminase levels: did not affect
[2]; C57BL/6J mice, 25 mg/kg BID for 15 days
  mouse weight: did not affect
[2]; C57BL/6J mice, 25 mg/kg BID for 15 days, H&E
  histology of mouse tissues: did not affect
[2]; [24]
  Alanine aminotransferase (ALT): 27.6 ± 5.6 U/L
  Albumin (ALB): 28.3 ± 2.7 g/L
  Alkaline phosphatase (ALP): 3.9 ± 1.7 U/L
  Aspartate aminotransferase (AST): 54.4 ± 9.4 U/L
  Creatinine (CRE): 17.7 ± 4.2 µmol/L
  Lactic dehydrogenase (LDH): 247.3 ± 41.0 U/L
  Phosphorus (P): 1.67 ± 0.39
  Total bilirubin (T-Bil): 2.68 ± 0.44 µmol/L
  Total protein (TP): 50.9 ± 2.5 g/L
[3]
  remaining activity at 1 µM: 53%
[4]; ABL1 (H396P)-nonphosphorylated
  remaining activity at 1 µM: 69%
[4]; ABL1(H396P)-phosphorylated
  remaining activity at 1 µM: 68%
[5]
  remaining activity at 1 µM: 99%
[6]
  remaining activity at 1 µM: 40%
[7]
  remaining activity at 1 µM: 62%
[8]
  remaining activity at 1 µM: 68%
[9]
  remaining activity at 1 µM: 96%
[10]
  remaining activity at 1 µM: 98%
[11]
  remaining activity at 1 µM: 86%
[12]
  remaining activity at 1 µM: 89%
[13]
  remaining activity at 1 µM: 100%
[14]
  remaining activity at 1 µM: 89%
[15]
  remaining activity at 1 µM: 100%
[16]
  remaining activity at 1 µM: 99%
[17]
  remaining activity at 1 µM: 100%
[18]
  remaining activity at 1 µM: 96%
[19]
  remaining activity at 1 µM: 93%
[20]
  remaining activity at 1 µM: 90%
[21]
  remaining activity at 1 µM: 100%
[22]
  remaining activity at 1 µM: 59%
[23]
  remaining activity at 1 µM: 92%
STK19
  ΔTm at 100 µM: 6.8 °C
STK19 V134Y
  inhibitory potential of IV for STK19 V134Y: remarkably compromised
